The experiment concerns NCI-H1876 tumor spheroid viability. Nature of the experiment: Anticancer human tumor NCI-H1876 cell line growth inhibition.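 For all read-outs here: spheroids exposed to compounds for seven days before the viability read.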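 For viability, T/C: percent of DMSO vehicle control viability so 100% = vehicle.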 The conditions noted are these: spheroids with HUVEC and MSC; for viability, T/C: stronger effect = lower value. The essentials: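 Complex tumor spheroids combined malignant cells with endothelial cells and mesenchymal stem cells. DNA-damaging drugs and DNA repair inhibitors were tested alone and in combination, at half-log dilutions down from clinical Cmax (top 10 microM if Cmax unknown), 0.25% DMSO final.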

The results in this text go back to PubChem BioAssay AID1845207 (Molecular Pharmacology Branch, DTP, NCI, 2023).

SMILES strings stand for the structures. Where “and” joins values, the source holds several entries; their conditions need not be identical. Equal entries are not always repeated. Calls of active or inactive are those of the source. Rule for the calls: active = viability on the fitted dose curve at most 10% of control; inactive = the rest.

For orientation: IC50 means the concentration needed to halve the response being measured. In general, viability, T/C refers to the ratio of treated to control. In the case of `COc1cc(C)[nH]c(=O)c1CN1CCc2c(Cl)cc(C(OC)C3COC3)c(Cl)c2C1=O` (configuration not stated) + CC[C@@]1(O)C(=O)OCc2c1cc1n(c2=O)Cc2cc3c(CN(C)C)c(O)ccc3nc2-1, the IC50 is above 10000 nM (curve of first compound, second compound 0.003 µM); below 31.6 nM (curve of first compound, second compound 0.00949 µM); below 31.6 nM (curve of first compound, second compound 0.03 µM); below 31.6 nM (curve of first compound, second compound 0.0949 µM); below 31.6 nM (curve of first compound, second compound 0.3 µM). Moreover, the viability, T/C (second compound 0.003 µM, first compound 0.0316 µM) is 92.3%; the viability, T/C (second compound 0.003 µM, first compound 0.1 µM) is 88.3%; the viability, T/C (second compound 0.003 µM, first compound 0.316 µM) was 82.6%; the viability, T/C (second compound 0.003 µM, first compound 1 µM) is 79.3%; the viability, T/C (second compound 0.003 µM, first compound 3.16 µM) was 80.6%; the viability, T/C (second compound 0.003 µM, first compound 10 µM) is 73.7%. Further, the viability, T/C runs as follows: (second compound 0.00949 µM, first compound 0.0316 µM) 32.3%; (second compound 0.00949 µM, first compound 0.1 µM) 19.7%; (second compound 0.00949 µM, first compound 0.316 µM) 19.2%; (second compound 0.00949 µM, first compound 1 µM) 19.4%; (second compound 0.00949 µM, first compound 3.16 µM) 17.3%; (second compound 0.00949 µM, first compound 10 µM) 18.6%. The viability, T/C (second compound 0.03 µM, first compound 0.0316 µM) was 3.49%; the viability, T/C (second compound 0.03 µM, first compound 0.1 µM) was 3.03%; the viability, T/C (second compound 0.03 µM, first compound 0.316 µM) was 3.24%; the viability, T/C (second compound 0.03 µM, first compound 1 µM) is 2.91%; the viability, T/C (second compound 0.03 µM, first compound 3.16 µM) was 3.73%; the viability, T/C (second compound 0.03 µM, first compound 10 µM) was 3.6%. Besides, the viability, T/C is 2.58% (second compound 0.0949 µM, first compound 0.0316 µM); 2.48% (second compound 0.0949 µM, first compound 0.1 µM); 2.58% (second compound 0.0949 µM, first compound 0.316 µM); 2.45% (second compound 0.0949 µM, first compound 1 µM); 2.45% (second compound 0.0949 µM, first compound 3.16 µM); 3.12% (second compound 0.0949 µM, first compound 10 µM). Moreover, the viability, T/C (second compound 0.3 µM, first compound 0.0316 µM) is 2.06%; the viability, T/C (second compound 0.3 µM, first compound 0.1 µM) was 2.39%; the viability, T/C (second compound 0.3 µM, first compound 0.316 µM) is 2.29%; the viability, T/C (second compound 0.3 µM, first compound 1 µM) is 1.79%; the viability, T/C (second compound 0.3 µM, first compound 3.16 µM) is 2.16%; the viability, T/C (second compound 0.3 µM, first compound 10 µM) is 2.06%.
As for `COc1ccc([C@@H](O)c2cc(-c3ncnc4cc(N5CCOCC5)ccc34)c(F)cc2Cl)nn1`, the viability, T/C is, setting by setting: (compound 0.0316 µM) 105% and 98% and 103%; (compound 0.1 µM) 104% (2×) and 95.2%; (compound 0.316 µM) 102% and 74.6% and 96.1%; (compound 1 µM) 97.6% and 98%; (compound 3.16 µM) 81.2% and 26.2% and 77.6%. Under “compound 1 µM”, the result was inactive. The IC50 (curve of compound) was 5500 nM and 1120 nM and 6510 nM.
